The structures appear in SMILES notation. Counter-ions that a name gives are not always drawn. Bounds are passed on as bounds.

The text below walks through data of patent publication US8551999B2, “Heterocyclic compound and pharmaceutical composition thereof” (Otsuka Pharmaceutical Co., Ltd., priority 2007, dated 2013).

Series [1] deals with human hepatic cancer cells (HuH-7). As to the kind of experiment: Antiproliferative effect on cancer cells (in vitro), sulforhodamine B method, HuH-7. It is filed as cell-based. Particulars: HuH-7 cells, 5 days incubation with test compound. The procedure:
(§1) Growth inhibition of human hepatic cancer cells (HuH-7) was determined by the sulforhodamine B method based on the method of Skehan P. et al. (J Natl Cancer Inst. 1990 Jul. 4; 82(13): 1107-12). In the study, HuH-7 cells were seeded on DMEM medium containing 10% fetal bovine serum in a 96-well microplate. After 24-hour incubation at 37° C. in the presence of 5% carbon dioxide, the test compound was added and the cells were incubated for another 5 days. After incubation, a trichloroacetic acid solution was added to yield the final concentration of 10% and the cells were left to stand at 4° C. for 1 hour to fix. Then, the cells were washed with water to remove the medium and trichloroacetic acid and dried in the air. The dried cells were stored at 4° C. until they were stained with sulforhodamine B. To each well, 1% acetic acid solution containing 0.4% sulforhodamine B was added and left to stand for 20 to 30 minutes at room temperature. After discarding the supernatant, each well was washed with 1% acetic acid solution, and 10 mM Tris ([…]) solution was added while stirring to elute the dye taken into the cells. Then, the optical density was determined at the measurement wavelength of 492 nm and the reference wavelength of 690 nm, and the difference was calculated. The cell growth activity in each well was defined as the value determined by subtracting the OD in the control well not containing cells (the difference in absorbance between 492 nm and 690 nm) from that in the test well.
(§2) The 50% inhibitory concentration (IC50 (nM)) of the test compound was determined by comparing the cell growth activity in the well containing the test compound with that of the control not containing the test compound.
On the technique in general: The SRB assay estimates cell density from bound dye.

In series [2] the test system is human chronic myelocytic leukemia cells (KU812). As to the kind of experiment: Antiproliferative effect on cancer cells (in vitro), WST-8 assay, KU812. The format is cell-based. As to conditions: 5 days incubation with test compound. The procedure: The growth inhibition on human chronic myelocytic leukemia cells (KU812) was determined by a WST-8 assay according to the method of Singh A K, et al. (Cancer Lett. 1996 Oct. 1; 107(1): 109-15.). In this method, KU812 cells were seeded in RPMI 1640 medium containing 10% fetal bovine serum in a 96-well microplate and incubated at 37° C. for 24 hours in the presence of 5% carbon dioxide. Then, the test compound was added and the cells were incubated for another 5 days. After incubation, 15 μL of 5 mM WST-8 (2-(2-methoxy-4-nitrophenyl)-3-(4-nitrophenyl)-5-(2,4-disulfenyl)-2H-tetrazolium, monosodium salt) was added and the cells were incubated for 2 hours. After the 2-hour incubation, 15 μL of 1% SDS (sodium dodecyl sulfate) was added and the optical density was determined at the measurement wavelength of 450 nm and the reference wavelength of 630 nm, and the difference was calculated. The cell growth activity in each well was defined as the value determined by subtracting the OD in the control well not containing cells (the difference in absorbance between 492 nm and 690 nm) from that in the test well.
as §2
(In general: Tetrazolium assays rely on reduction of a dye to a coloured formazan, in cell work by metabolically active cells.)

The subject of series [3] is LI90 cells, a human hepatic stellate cell line. Nature of the series: Inhibitory effect on collagen synthesis (in vitro). Particulars: in the presence of recombinant human TGF-β1, 3H-proline labelled collagen in supernatant. The format is cell-based. The procedure: Inhibitory Effect on Collagen Synthesis (In Vitro)
LI90 cells, a human hepatic stellate cell line, were suspended in DMEM (Dulbecco's modified eagle medium) supplemented with 10% inactivated FBS (fetal bovine serum), seeded on a 12-well plate and cultured in a CO2 incubator (preset temperature: 37° C., preset CO2 concentration: 5%). After being cultured for 24 hours, the cells were washed with D-PBS (Dulbecco's phosphate buffered saline), placed in MEM (Eagle's minimum essential medium) supplemented with 0.1% inactivated FBS and then cultured in a CO2 incubator. After being cultured for 3 days, the cells were again washed with D-PBS, placed in MEM (Eagle's minimum essential medium) supplemented with 0.1% inactivated FBS and treated with or without a test compound in the presence of […] recombinant human TGF-β1 (transforming growth factor-β1) in a CO2 incubator for 16 hours. After the incubation, the cells were washed with D-PBS and the medium was replaced with MEM containing 0.25 mM ascorbate. A radio-labeled compound, ^3H-proline, was then added to the culture medium to radio-label the collagen proteins produced. After being cultured for 24 hours, the supernatant was collected and the collagen proteins were extracted from the supernatant as acid-soluble fractions. The amount of collagen produced was determined by measuring the radioactivity contained in the fractions. A concentration of test compound that produced 50% inhibition [IC50 value (nM)] on collagen synthesis was calculated by comparing the radioactivity count in a supernatant of test-compound-treated cells with that of untreated cells (control).

Series [4] deals with human pancreatic cancer cells (HPAC). As to the kind of experiment: Antiproliferative effect on cancer cells (in vitro), sulforhodamine B method, HPAC. The format is cell-based. Particulars: 5 days incubation with test compound. The procedure: as §1, §2
The growth inhibition on human pancreatic cancer cells (HPAC) was also determined by the above method using HPAC instead of HuH-7 and RPMI 1640 medium containing 10% fetal bovine serum instead of the DMEM medium containing 10% fetal bovine serum.

Series [5] has as its system STAT3. Nature of the series: Inhibitory effect on IL-6-induced STAT3 phosphorylation in human myeloma cells (in vitro). It is filed as cell-based. As to conditions: U266B1 human myeloma cells, IL-6 1 ng/mL, pSTAT3 (Y705) by flow cytometry. The procedure: The inhibitory effect of the test compound on phosphorylation of STAT3 (signal transducer and activator of transcription-3) in human myeloma cells ([…]) induced by interleukin-6 (IL-6) was examined using the modified method of Tochizawa S. et al. (J Immunol Methods. 2006 Jun. 30; 313(1-2): 29-37). In the study, U266B1 cells were seeded in an RPMI 1640 medium containing 10% fetal bovine serum (FBS) in a 12-well plate and incubated at 37° C. for 2 hours in the presence of carbon dioxide. After incubation, IL-6 was added to yield the concentration of 1 ng/mL and the cells were incubated at 37° C. for 15 minutes in the presence of 5% carbon dioxide. After fixation of the cells by the addition of a buffer containing formaldehyde (Lyse/Fix Buffer, BD Biosciences) at room temperature for 10 minutes, the suspension was centrifuged to remove the supernatant and the cells were treated with ice-cold methanol for 10 minutes to improve the permeability of the cell membrane. The cells were centrifuged to remove methanol and washed twice with Dulbecco's phosphate buffered saline (D-PBS) containing 2% fetal bovine serum (FBS). A fluorescence-labeled anti-phosphorylated STAT3 (pSTAT3) antibody (Alexa Fluor 488-labeled anti-pSTAT3 (Y705) antibody, BD Biosciences) was added for staining in an ice bath for 30 minutes.
The cells were washed once with 2% FBS-containing D-PBS and suspended in 2% FBS-containing D-PBS, and the fluorescence intensity was determined using a flow cytometer (FACS Sort, BD Biosciences). The ratio of fluorescence intensity in the test group to the control group (T/C) was determined from the difference in the geometric mean of pSTAT3 fluorescence intensity between the test compound group of each concentration and the non-stimulated control group according to the following equation by defining the difference in the geometric mean of pSTAT3 fluorescence intensity between the IL-6 induced control and the non-stimulated control as 100%. T/C(%)=([…] of pSTAT3 fluorescence intensity in the cells treated with the test compound—geometric mean of pSTAT3 fluorescence intensity in non-stimulated control)/(geometric mean of fluorescence intensity of IL-6-induced pSTAT3 in the control−geometric mean of pSTAT3 fluorescence intensity in non-stimulated control)×100.
The concentration of the test compound inhibiting phosphorylation of STATS at 50% (IC50; concentration of the test compound corresponding to 50% T/C(%)) was determined using T/C(%) values at the respective concentrations and defined as the index for the inhibitory activity.

The subject of series [6] is Human hepatic cancer cells (HuH-7). As to the kind of experiment: Antitumor effect on hepatic cancer cells, HuH-7 (in vivo). Particulars: SCID mice bearing HuH-7 tumor, 10 mg/kg/day orally, once daily, 9 consecutive days; ratio of relative tumor volume treatment/control. Here is the method:
Human hepatic cancer cells (HuH-7) were transplanted in SCID mice (6 females/group) and the inhibitory effect of the invention on their growth was examined. In the study, 0.2 mL of a cell suspension adjusted to contain 2.5×10^7 cells/mL was injected subcutaneously in the right axilla to prepare tumor bearing mice. When the tumor diameter became 5 mm or more, the animals were allocated to groups based on the tumor volume. The test compound was administered orally as a suspension in 5% gum arabic, once daily, for 9 consecutive days. The control group received 5% gum arabic. Tumor volumes were measured on the following day of the last administration. The relative tumor volume was determined by calculating the ratio of the tumor volume on the following day of the last administration to that at group allocation. The ratio of the relative tumor volume in the treatment group to that in the control group (T/C %) was calculated as the index for the effect. Relative tumor volume=Tumor volume on the following day of the last administration/Tumor volume at group allocation. T/C %=(Mean relative tumor volume in the treatment group/Mean relative tumor volume in the control group)×100.

Regarding `Br.CC(C)Oc1ccc(CN2CCN(C(=O)c3cc4ccc(Oc5ccc(NC(=O)c6ccc(C(F)(F)F)cc6Cl)cn5)cc4n3C)CC2)cc1` [Example 253, 2-Chloro-N-(6-{2-[4-(4-isopropoxybenzyl)piperazine-1-carbonyl]-1-methyl-1H-indol-6-yloxy}pyridin-3-yl)-4-trifluoromethylbenzamide hydrobromide], the melting point – broadly, the temperature of the solid-liquid transition – is 237.2 to 238.2 °C. In addition, in series [1] (Homo sapiens, 120 h), the IC50 – broadly, the concentration that gives 50% inhibition – was less than 0.01 µM. In addition, the concentration for half-maximal inhibition (IC50) in series [2] (Homo sapiens, 120 h) is less than 0.002 µM. Also, in series [3], the IC50 was less than 0.01 µM. The IC50 in series [4] (Homo sapiens, 120 h) was less than 0.07 µM.

Turning to `COc1ccc(CN2CCN(C(=O)c3cc4cc(Oc5ccc(N(C)C(=O)c6ccc(C(F)(F)F)cc6)cn5)ccc4n3C)CC2)cc1` [Example 338, N-(6-{2-[4-(4-Methoxybenzyl)piperazine-1-carbonyl]-1-methyl-1H-indol-5-yloxy}pyridin-3-yl)-N-methyl-4-trifluoromethylbenzamide maleate], the IC50 in series [1] (Homo sapiens, 120 h) is less than 0.01 µM; in series [2] (Homo sapiens, 120 h), less than 0.002 µM; in series [5], less than 0.01 µM; in series [4] (Homo sapiens, 120 h), less than 0.07 µM.

For `CC(C)Oc1ccc(CN2CCN(C(=O)c3cc4cc(Oc5ccc(N(C)C(=O)c6ccc(C(F)(F)F)cc6)cn5)ccc4n3C)CC2)cn1.O=C(O)/C=C\C(=O)O` [Example 424, N-(6-{2-[4-(6-Isopropoxypyridin-3-ylmethyl)piperazine-1-carbonyl]-1-methyl-1H-indol-5-yloxy}pyridin-3-yl)-N-methyl-4-tri-fluoromethylbenzamide maleate], the melting point lay in the range of 157 to 159 °C. This compound had an IC50 in series [1] (Homo sapiens, 120 h) of less than 0.01 µM. In series [2] (Homo sapiens, 120 h), this compound registered an IC50 of less than 0.002 µM. Moreover, the IC50 in series [3] was less than 0.01 µM. In series [4] (Homo sapiens, 120 h), this compound displayed an IC50 of less than 0.07 µM.

Take `Cc1c(Oc2ccc(N(C)C(=O)c3ccc(C(F)(F)F)cc3)cn2)ccc2c1cc(C(=O)N1CCN(Cc3ccc(C(C)C)cc3)CC1)n2C` [Example 428, N-(6-{2-[4-(4-Isopropylbenzyl)piperazine-1-carbonyl]-1,4-dimethyl-1H-indol-5-yloxy}pyridin-3-yl)-N-methyl-4-trifluoro-methylbenzamide hydrobromide]: the IC50 in series [1] is less than 0.01 µM; in series [2], less than 0.002 µM; in series [3] it was less than 0.01 µM; in series [4], less than 0.07 µM.

`Br.CN(C(=O)c1ccc(C(F)(F)F)cc1)c1ccc(Oc2ccc3cc(C(=O)N4CCN(Cc5ccc(OCC(F)(F)F)cc5)CC4)n(C)c3c2)nc1` [Example 436, N-Methyl-N-[6-(1-methyl-2-{4-[4-(2,2,2-trifluoroethoxy)benzyl]-piperazine-1-carbonyl}-1H-indol-6-yloxy)pyridin-3-yl]-4-tri-fluoromethylbenzamide hydrobromide] displayed a melting point of 225 to 226.4 °C. This compound came in with an IC50 in series [1] (Homo sapiens, 120 h) of less than 0.01 µM. The compound further returned a half-inhibitory concentration (IC50) in series [2] (Homo sapiens, 120 h) of less than 0.002 µM. Further, the IC50 in series [3] is less than 0.01 µM. For the same compound, the IC50 in series [5] is less than 0.01 µM. In series [4] (Homo sapiens, 120 h), the IC50 is less than 0.07 µM.

For the compound `Br.CN(C(=O)c1ccc(C(F)(F)F)cc1)c1ccc(Oc2ccc3cc(C(=O)N4CCN(Cc5ccc(OC(CF)CF)cc5)CC4)n(C)c3c2)nc1` [Example 445, N-[6-(2-{4-[4-(2-Fluoro-1-fluoromethylethoxy)benzyl]piperazine-1-carbonyl}-1-methyl-1H-indol-6-yloxy)pyridin-3-yl]-N-methyl-4-tri-fluoromethylbenzamide hydrobromide], the melting point fell in the range of 230.8 to 231.4 °C. Further, the T/C % in series [6] is recorded as less than 50%. In series [5], this compound registered an IC50 of less than 0.01 µM.

Take `Cc1cc(C(F)(F)F)ccc1C(=O)Nc1ccc(Oc2ccc3cc(C(=O)N4CCN(Cc5ccc(OC(CF)CF)cc5)CC4)n(C)c3c2)nc1.Cl` [Example 493, N-[6-(2-{4-[4-(2-Fluoro-1-fluoromethylethoxy)benzyl]piperazine-1-carbonyl}-1-methyl-1H-indol-6-yloxy)pyridin-3-yl]-2-methyl-4-tri-fluoromethylbenzamide hydrochloride]: the melting point is 192.5 to 195.4 °C. Moreover, the T/C % in series [6] is on record as less than 50%. Also, the IC50 in series [5] is less than 0.01 µM.
